According to US9115212B2, “Bifunctional peptide” (REGENTIS INTERNATIONAL, priority 2012, dated 2015):
Where a SMILES comes first, the peptide text is derived from it.

What was measured:
type I collagen = test: Protein expression of type I collagen in dermal fibroblasts (Western Blot, ImageJ); type: cell-based, human; conditions: peptide 100 μg/ml, vs untreated control
Procedure: (§1) The dermal fibroblasts were isolated from abdomen skin biopsies obtained during surgery operations performed on healthy patients between 35 and 75 years of age.
(§2) After removing the epidermis, the fibroblasts were recovered by enzymatic digestion, then were cultured at 37° C. in DMEM (Dulbecco's Modified Eagle Medium) medium supplemented with 10% fetal calf serum and 1% penicillin/streptomycin.
(§3) The fibroblasts were then treated with the peptide having sequence […] (SEQ. ID NO. 1), or various fragments of this sequence, at a concentration of 100 μg/ml. The various fragments tested are as follows: • peptide 1 (pept 1): peptide having the sequence […] (SEQ. ID NO. 1), • peptide 2 (pept 2): sequence […] (SEQ. ID NO. 1), wherein N-terminal and C-terminal ends correspond to N and OH, respectively • peptide 3 (pept 3): (VGVAPG (SEQ. ID NO: 29))3, wherein N-terminal and C-terminal ends correspond to N and OH, respectively • peptide 4 (pept 4): RVRLIL (SEQ. ID NO. 32, wherein N-terminal and C-terminal ends correspond to N and OH, respectively • peptide 5 (pept 5): N-Gly-Ile-Leu-OH
The protein expression of the type I collagen and the type III collagen has then been shown by Western Blot and quantified by ImageJ. The results are shown respectively in the attached FIGS. 3A and 3B. The control (Ctrl) corresponds to the expression of type I and III collagen at the level of cells not treated with peptides. The experiments were performed in triplicate.

type III collagen = test: Protein expression of type III collagen in dermal fibroblasts (Western Blot, ImageJ); type: cell-based, human; conditions: peptide 100 μg/ml
Procedure: as §1, §2, §3
The protein expression of the type I collagen and the type III collagen has then been shown by Western Blot and quantified by ImageJ. The results are shown respectively in the attached FIGS. 3A and 3B. […]

COL1A1 gene = test: Gene expression of COL1A1 in fibroblast cultures (real-time PCR); type: cell-based, human; conditions: fibroblasts, 100 μg/ml, 24 h, normalised to GAPDH
Procedure: (§4) The gene expression of the type I and III collagens in cultures of fibroblasts was also tested in the presence of the different peptides (pept 1 to pept 5) at a concentration of 100 μg/ml.
(§5) After 24 h of treatment with different peptides, the RNAs were extracted from the cultures using a RNeasy® kit (QIAGEN), then re-transcribed into complementary DNAs (cDNAs) using the RT2 First Strand Kit from SABiosciences™.
(§6) Real-time PCR analyses were then performed using the Mx3000p thermocycler from Stratagene in a 96-well plate. Each sample was analyzed in triplicate. The CDNAs serve as matrices in a reaction mixture containing the RT2 SYBR® Green/ROX™ qPCR Master Mix reagents (SABiosciences™) and the sense and antisense primers specific for the gene to be amplified. The reading of the fluorescence was performed at the end of each cycle and analyzed by means of the MxPro software (Stratagene). The relative expression of the COL1A1 and COL3A1 genes of interest coding for type I and type III collagen was obtained by normalizing the amount of products for amplifying the gene being studied by the amount of DNA amplified from a “domestic” gene, in this case the RNA of the gene encoding for the glyceraldehyde-3-phosphate dehydrogenase (GAPDH). As from the number of cycles corresponding to an amplification with a 100% efficiency, the relative quantity of cDNAs studied was calculated using the 2-AACT method (Livak & Schmittgen, 2001).
(§7) The control (Ctrl) corresponds to the expression of the genes coding for both types of collagen when the fibroblasts are not treated.

COL3A1 gene = test: Gene expression of COL3A1 in fibroblast cultures (real-time PCR); type: cell-based, human; conditions: fibroblasts, 100 μg/ml, 24 h; for gene expression of type III collagen (COL3A1): normalised to GAPDH
Procedure: as §4, §5, §6, §7

[1] = system: type I and type III collagen; test: Collagen expression depending on the age of the patients; type: cell-based, human; conditions: dermal fibroblasts from patients
Procedure: Dermal fibroblasts from younger or older patients were cultured and the bifunctional peptide according to the invention having the sequence […] (SEQ. ID NO. 1) has been tested as to the protein and gene expression of type I and type III collagen. The results obtained as regards the protein expression of the two types of collagen are visible in FIG. 5.

urokinase [2] = molecular target: T1, urokinase (Homo sapiens, UniProt P00749); test: Urokinase activity on synthetic substrate S2444; type: biochemical
Procedure: The activity of the urokinase on its synthetic substrate, D-Glu-Gly-Arg+NHPhNO2 L-Pyroglutamyl-glycyl-L-arginine-p-Nitroaniline hydrochloride (2444) has been tested in the presence and absence of the peptide according to the invention at different concentrations.
A kinetics of hydrolysis of the substrate S2444 […] by the urokinase (9.25*10^−6 mM) was carried out in the presence of the bifunctional peptide having the sequence […] (SEQ. ID NO. 1) and concentrated at 10^−3, 10^−4 and 10^−5 M for 1 hour. The control corresponds to the kinetics in the absence of peptide. The enzyme activity was evaluated by measuring the absorbance (DO) at 405 nm every 5 minutes for a period of 35 min.
FIG. 6B is a graphical representation of the dose/effect relationship between the activity of the urokinase and the concentration of the bifunctional peptide used at time 15 min. The dotted line in the figure permits to determine the IC50, i.e. the peptide concentration required to reduce the activity of the urokinase by 50%.

MMP-1 [3] = molecular target: T2, MMP-1 (Homo sapiens, UniProt P03956); test: MMP-1 activity on natural substrate, collagen fibers of human dermis (cuts of skin, immunostaining); conditions: APMA-activated MMP-1, peptide 100 μg/ml, 3 h
T2 sequence (P03956 100-469): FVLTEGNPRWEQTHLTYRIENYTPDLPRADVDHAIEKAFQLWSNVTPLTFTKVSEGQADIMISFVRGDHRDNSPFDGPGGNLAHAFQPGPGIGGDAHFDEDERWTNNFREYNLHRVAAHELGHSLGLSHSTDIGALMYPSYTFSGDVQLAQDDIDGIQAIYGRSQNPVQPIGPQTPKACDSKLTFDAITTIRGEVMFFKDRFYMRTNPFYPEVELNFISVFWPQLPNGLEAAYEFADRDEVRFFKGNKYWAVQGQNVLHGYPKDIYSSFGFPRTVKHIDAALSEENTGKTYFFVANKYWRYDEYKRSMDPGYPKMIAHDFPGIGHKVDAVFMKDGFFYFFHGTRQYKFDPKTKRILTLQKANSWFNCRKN
Procedure: The effects of the peptide according to the invention were also tested on the activity of the MMP-1 in the presence of its natural substrate, i.e. the collagen fibers of human dermis.
To this end, the MMP-1 has previously been activated by APMA (4-aminophenylmercuric acetate) at 20 mM for 1 h30 at 37° C. The so activated MMP-1 was then deposited on cuts of skin having a thickness of 5μ in the presence or absence of the peptide according to the invention (100 μg/ml). After 3 h, the cuts of skin were immunostained, in order to reveal the presence of type I and III collagen, then observed by confocal microscopy. […] On the other hand, in the presence of the bifunctional peptide, the action of said MMP-1 was inhibited; indeed, the collagens I and III were detected.

urokinase [4] = molecular target: T1, urokinase; test: Cleavage of the bifunctional peptide by the urokinase (HPLC); conditions: excess of urokinase, peptide 0.45 mM
Procedure: At the pericellular level, an excess of urokinase was observed, of about 10^−4 M. The peptide could thus be cleaved by the urokinase, the latter acting in particular at the level of the arginine residues (Arg) of the portion B of the peptide according to the invention.
Studies were conducted by HPLC on a Chromolith Jupiter C18 column (50×4.6 mm), and applying a linear gradient of 0.1% TFA of acetonitrile in 0.1% TFA of water, 0 to 100% for 100 min. […] However, after the action of an excess of urokinase on the bifunctional peptide (0.45 mM), the spectral peak was different; indeed, the new peak was eluted at 20 min, thus characterizing a cleavage of the bifunctional peptide by the urokinase (FIG. 8B).

dermal fibroblasts = test: Toxicity on dermal fibroblasts; type: cell-based; conditions: peptide concentrations up to 1 mg/ml
Procedure: (§8) According to an embodiment, the bifunctional peptide is used preferably at a concentration substantially between 10 μg/ml and 1 mg/ml. Indeed, no toxicity of the peptide according to the invention has been observed on dermal fibroblasts treated with peptide concentrations up to 1 mg/ml. In addition, studies conducted in order to find the toxicity genes through the SAM (Significance Analysis of Microarrays) statistical approach have shown that the cell death, the disruption of the conjunctive tissue and the tumor invasion are induced only from a high concentration of bifunctional peptide, higher than 1 mg/ml.

toxicity genes = test: Toxicity genes through the SAM (Significance Analysis of Microarrays) statistical approach; type: cell-based
Procedure: as §8

MMP-1 [5] = molecular target: T2, MMP-1; test: MMP-1 activity on synthetic substrate DNP-Pro-Cha-Gly-Cys (Me)-His-Ala-Lys (N-Me-Abz)-NH2; type: biochemical
Procedure: The substrate of the MMP-1 that was used to test its activity in the presence of the peptide is a synthetic substrate, DNP-Pro-Cha-Gly-Cys (Me)-His-Ala-Lys (N-Me-Abz)-NH2.
A concentration of 80 ng/μl of MMP-1 was brought in the presence of 0.4 ng/μl of synthetic substrate, in the presence or not of bifunctional peptide concentrated at 10^−3, 10^−4 and 10^−5 M for 1 h.
More particularly, FIG. 7A represents a kinetics of hydrolysis of the synthetic substrate of the MMP-1 in the presence or absence (control) of the peptide at different concentrations. The enzymatic activity of the MMP-1 was evaluated by measuring the absorbance (DO) at 465 nm every 5 minutes for a period of 35 min.
FIG. 7B is a graphical representation of the dose-effect relationship between the activity of the MMP-1 and the concentration of bifunctional peptide used at time 15 min.
The Gly-Ile-Leu (GIL) sequence was selected by the inventors for its capability of occupying the P′1, P′2 and P′3 pockets of type I collagenase, the MMP-1. The activity of the latter has been tested on the synthetic substrate, the DNP-Pro-Cha-Gly-Cys (Me)-His-Ala-Lys(N-Me-Abz)-NH2, in the presence or absence of the peptide 5 having the Gly-Ile-Leu (GIL) sequence at concentrations of 10^−5, 10^−4 and 10^−3 M.

Molecule	stimulation of the protein expression of the type I collagen (type I collagen)	increase in the synthesis of type III collagen compared to fibroblasts treated with pept 3 (type III collagen; relative to pept 3) [%]	production of type III collagen (type III collagen; vs untreated control)	gene expression of type I collagen (COL1A1) (COL1A1 gene)	gene expression of type III collagen (COL3A1) (COL3A1 gene)	synthesis of type III collagen (gene expression) with respect to cells treated with peptide 3 (COL3A1 gene; relative to peptide 3)	action on the synthesis of collagen depending on the age of the patients [1]	mode of urokinase inhibition (urokinase [2])	action of MMP-1 on collagens I and III of cuts of skin (MMP-1 [3])	cleavage by urokinase (urokinase [4])	toxicity on dermal fibroblasts (dermal fibroblasts)	concentration from which cell death, disruption of the conjunctive tissue and tumor invasion are induced (toxicity genes)	effect on the activity of the MMP-1 on its synthetic substrate (MMP-1 [5]; 10^−5, 10^−4 and 10^−3 M)	IC50 (MMP-1 [5]; synthetic substrate, time 15 min, read-out: IC50 MMP-1 activity, peptide concentration (converted)) [µM]
CC[C@H](C)[C@H](NC(=O)CNC(=O)[C@H](CC(C)C)NC(=O)[C@H](CCCNC(=N)N)NC(=O)[C@@H](NC(=O)[C@H](CCCNC(=N)N)NC(=O)CNC(=O)[C@@H]1CCCN1C(=O)[C@H](C)NC(=O)[C@@H](NC(=O)[C@H](C)NC(=O)[C@@H](NC(=O)CNC(=O)[C@@H]1CCCN1C(=O)[C@H](C)NC(=O)[C@@H](NC(=O)[C@H](C)NC(=O)[C@@H](NC(=O)CNC(=O)[C@@H]1CCCN1C(=O)[C@H](C)NC(=O)[C@@H](NC(=O)CNC(=O)[C@@H](N)C(C)C)C(C)C)C(C)C)C(C)C)C(C)C)C(C)C)C(C)C)C(=O)N[C@@H](CC(C)C)C(=O)O [pept 1] (H-VGVAPGVAVAPGVAVAPGRVRLGIL-OH)	30%	36	more than doubled	stimulate	stimulate	increase	greater when the fibroblasts proceed from older patients	competitive inhibitor	inhibited	cleavage	no toxicity	higher than 1 mg/ml		
CC[C@H](C)[C@H](NC(=O)CN)C(=O)N[C@@H](CC(C)C)C(=O)O [pept 5, N-Gly-Ile-Leu-OH] (H-Gly-Ile-Leu-OH)	do not permit the stimulation			no effect	no effect								decreases in a dose-dependent way	70.7
(VGVAPG (SEQ. ID NO: 29))3 [pept 3]	30%			stimulate	stimulate									
RVRLIL [pept 4, ID NO; 32]	do not permit the stimulation			no effect	no effect									
VGVAPGVAVAPGVAVAPGRVRLGIL [pept 2]	30%			stimulate	stimulate									
